The experiment concerns sweat production. The following applies: human, in vivo.

For `CCCCCCCCCCCCCC(=O)OC(C)C` [Isopropyl Myristate], the “greater effectiveness in reducing sweat production than placebo” value was determined as 191%, the “greater reduction in sweat production than the control group” value (from here on “greater reduction”) was determined as 195%, the “reduction in sweat production” value came out at 103 mg and the “subjects with at least a 30% reduction in sweat production compared to Baseline” value (“subjects with at least a 30% reduction” below) amounted to 55%.

With `CCCOC(=O)c1ccc(O)cc1` [Propylparaben], the “greater effectiveness in reducing sweat production than placebo” value was determined as 245%, the “greater reduction” value is recorded as 337%, the “reduction in sweat production” value is on record as 177 mg and the “subjects with at least a 30% reduction” value is 70%.

On to Polysorbate 80, for which the “greater effectiveness in reducing sweat production than placebo” value came out at 280%, the “greater reduction” value stood at 300%, the “reduction in sweat production” value was determined as 159 mg and the “subjects with at least a 30% reduction” value is listed as 80%.

The values above are taken from patent US20150196490A1 (priority 2011, published 2015).
